Laboratory results: patent publication US8450320B2, “Pyrrolopyrazinone inhibitors of kinases” (AbbVie Inc., priority 2010, dated 2013)

Molecular target: T1, Cdc7 (BEV coexpressed huCDC7/DBF4) (Homo sapiens, UniProt O00311)
T1 construct: made in house; host or cells: BEV (baculovirus expression vector)
Assay: Cdc7 enzyme inhibition assay ([33P]-ATP, biotinylated peptide substrate, FlashPlate)
Assay type: biochemical
Conditions: Ki generated from IC50 assuming ATP-competitive inhibition; 1 μM ATP, apparent ATP Km 0.7 μM
Method: This example describes the assays that may be used to identify compounds having kinase activity.
Cdc7 (BEV coexpressed huCDC7/DBF4) is prepared internally. Cdc7 assays are conducted as follows with final concentrations as listed. In 384-well v-bottom polypropylene plates, 6 μL compound (2% DMSO), is mixed with 6 μL of Cdc7 (2 ug/mL), and Jerini peptide substrate A-All (biotin-C6linker-TPSDSLIYDDGLS) (2 μM), followed by immediate initiation with 6 μL […] (1 μM, 20 mCi/μmol) using a reaction buffer comprising 25 mM HEPES, pH 7.5, 1 mM DTT, 10 mM MgCl2, 100 μM Na3VO4, 0.075 mg/ml Triton X-100. Reactions are quenched after 1 hr by the addition of 90 μL stop buffer (50 mM EDTA, 2M NaCl). 85 μL of the stopped reactions are transferred to 384-well streptavidin-coated plates (FlashPlate Plus, Perkin Elmer), incubated 30 minutes at room temperature and washed 3 times with 0.05% Tween-20/PBS using an ELX-405 automated plate washer (BioTek), and counted on a TopCount Scintillation Plate Reader (Packard). IC50 values are determined via non-linear regression fitting of enzyme inhibition data and corresponding Ki values are generated assuming ATP-competitive (equilibrium) inhibition and using the experimentally determined apparent ATP Km of 0.7 μM (as determined using the above assay condition, but varying ATP).
Table 1 depicts enzyme inhibition data (Ki) for exemplary compounds. In Table 1, “A” represents a Ki of less than 10 nM, “B” represents a Ki of between 10 nM and 100 nM, and “C” represents a Ki of greater than 100 nM.

T1 sequence (O00311 whole entry): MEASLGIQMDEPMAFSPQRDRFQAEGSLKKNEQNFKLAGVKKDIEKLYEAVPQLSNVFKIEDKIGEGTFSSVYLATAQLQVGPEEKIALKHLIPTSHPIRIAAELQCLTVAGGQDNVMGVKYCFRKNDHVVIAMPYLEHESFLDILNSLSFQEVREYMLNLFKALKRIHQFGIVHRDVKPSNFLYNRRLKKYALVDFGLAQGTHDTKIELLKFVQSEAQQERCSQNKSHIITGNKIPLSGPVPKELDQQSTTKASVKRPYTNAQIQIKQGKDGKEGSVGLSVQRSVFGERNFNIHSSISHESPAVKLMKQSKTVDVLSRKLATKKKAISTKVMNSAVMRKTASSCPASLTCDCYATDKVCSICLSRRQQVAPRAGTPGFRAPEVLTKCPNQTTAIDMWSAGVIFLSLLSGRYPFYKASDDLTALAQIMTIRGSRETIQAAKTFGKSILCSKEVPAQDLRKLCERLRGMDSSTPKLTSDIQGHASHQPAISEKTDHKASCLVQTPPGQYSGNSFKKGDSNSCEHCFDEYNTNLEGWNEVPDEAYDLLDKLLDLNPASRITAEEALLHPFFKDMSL
T1 sequence (Q9UBU7 whole entry partner): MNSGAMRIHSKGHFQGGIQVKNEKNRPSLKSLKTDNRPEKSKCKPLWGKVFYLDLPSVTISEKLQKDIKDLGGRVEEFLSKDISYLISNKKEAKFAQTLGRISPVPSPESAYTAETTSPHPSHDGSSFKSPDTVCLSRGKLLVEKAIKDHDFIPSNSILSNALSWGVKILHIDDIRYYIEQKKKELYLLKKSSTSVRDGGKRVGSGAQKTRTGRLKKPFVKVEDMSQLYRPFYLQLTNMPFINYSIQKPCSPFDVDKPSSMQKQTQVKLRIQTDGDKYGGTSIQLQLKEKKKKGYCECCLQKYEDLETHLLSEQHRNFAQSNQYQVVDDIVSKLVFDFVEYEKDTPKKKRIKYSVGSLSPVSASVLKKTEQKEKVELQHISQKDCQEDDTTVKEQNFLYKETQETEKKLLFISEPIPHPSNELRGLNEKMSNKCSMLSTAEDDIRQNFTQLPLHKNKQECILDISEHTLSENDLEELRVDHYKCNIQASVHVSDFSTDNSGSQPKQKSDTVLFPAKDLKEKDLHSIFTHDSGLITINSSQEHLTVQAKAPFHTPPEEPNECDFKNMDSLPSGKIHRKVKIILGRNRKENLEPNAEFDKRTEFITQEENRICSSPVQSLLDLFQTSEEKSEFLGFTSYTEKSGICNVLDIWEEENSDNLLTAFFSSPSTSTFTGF

Ki | Structure (SMILES)
< 0.01 µM | CN1CCCC(C(=O)Nc2ccc(Cc3c[nH]c(=O)c4cc(-c5c[nH]c6ncccc56)cn34)cc2)C1 (stereo not shown) [Example 40, 1-methyl-N-(4-{[1-oxo-7-(1H-pyrrolo[2,3-b]pyridin-3-yl)-1,2-dihydropyrrolo[1,2-a]pyrazin-4-yl]methyl}phenyl)piperidine-3-carboxamide]
< 0.01 µM | CCOC(=O)c1cccc(Cc2c[nH]c(=O)c3cc(-c4c[nH]c5nccnc45)cn23)c1 [Example 12, ethyl 3-{[1-oxo-7-(5H-pyrrolo[2,3-b]pyrazin-7-yl)-1,2-dihydropyrrolo[1,2-a]pyrazin-4-yl]methyl}benzoate]
< 0.01 µM | NC(=O)c1cccc(Cc2c[nH]c(=O)c3cc(-c4c[nH]c5ncccc45)cn23)c1 [Example 10, 3-{[1-oxo-7-(1H-pyrrolo[2,3-b]pyridin-3-yl)-1,2-dihydropyrrolo[1,2-a]pyrazin-4-yl]methyl}benzamide]
< 0.01 µM | O=c1[nH]cc(Cc2ccc(CNC3CCC3)cc2)n2cc(-c3c[nH]c4ncccc34)cc12 [Example 25, 4-{4-[(cyclobutylamino)methyl]benzyl}-7-(1H-pyrrolo[2,3-b]pyridin-3-yl)pyrrolo[1,2-a]pyrazin-1(2H)-one]
< 0.01 µM | CCOC(=O)c1cccc(Cc2c[nH]c(=O)c3cc(-c4c[nH]c5ncccc45)cn23)c1 [Example 6, ethyl 3-{[1-oxo-7-(1H-pyrrolo[2,3-b]pyridin-3-yl)-1,2-dihydropyrrolo[1,2-a]pyrazin-4-yl]methyl}benzoate]
< 0.01 µM | O=C(Nc1ccc(Cc2c[nH]c(=O)c3cc(-c4c[nH]c5ncccc45)cn23)cc1)c1ccccc1 [Example 42, N-(4-{[1-oxo-7-(1H-pyrrolo[2,3-b]pyridin-3-yl)-1,2-dihydropyrrolo[1,2-a]pyrazin-4-yl]methyl}phenyl)benzamide]
0.01 to 0.1 µM | CCOC(=O)c1cccc(Cc2c[nH]c(=O)c3cc(-c4ccncc4)cn23)c1 [Example 4, ethyl 3-{[1-oxo-7-(pyridin-4-yl)-1,2-dihydropyrrolo[1,2-a]pyrazin-4-yl]methyl}benzoate]
< 0.01 µM | Nc1cccc(Cc2c[nH]c(=O)c3cc(-c4c[nH]c5ncccc45)cn23)c1 [Example 22, 4-(3-aminobenzyl)-7-(1H-pyrrolo[2,3-b]pyridin-3-yl)pyrrolo[1,2-a]pyrazin-1(2H)-one]
< 0.01 µM | O=C(Nc1ccc(Cc2c[nH]c(=O)c3cc(-c4c[nH]c5ncccc45)cn23)cc1)C1CCC1 [Example 18, N-(4-{[1-oxo-7-(1H-pyrrolo[2,3-b]pyridin-3-yl)-1,2-dihydropyrrolo[1,2-a]pyrazin-4-yl]methyl}phenyl)cyclobutanecarboxamide]
< 0.01 µM | O=C(O)c1cccc(Cc2c[nH]c(=O)c3cc(-c4c[nH]c5nccnc45)cn23)c1 [Example 11, 3-{[1-oxo-7-(5H-pyrrolo[2,3-b]pyrazin-7-yl)-1,2-dihydropyrrolo[1,2-a]pyrazin-4-yl]methyl}benzoic acid]
< 0.01 µM | O=C(O)c1cccc(Cc2c[nH]c(=O)c3cc(-c4c[nH]c5ncccc45)cn23)c1 [Example 5, 3-{[1-oxo-7-(1H-pyrrolo[2,3-b]pyridin-3-yl)-1,2-dihydropyrrolo[1,2-a]pyrazin-4-yl]methyl}benzoic acid]
< 0.01 µM | N#Cc1cc(Cc2c[nH]c(=O)c3cc(-c4ccncc4)cn23)ccc1F [Example 1, 2-fluoro-5-{[1-oxo-7-(pyridin-4-yl)-1,2-dihydropyrrolo[1,2-a]pyrazin-4-yl]methyl}benzonitrile]
0.01 to 0.1 µM | O=C(O)c1cccc(Cc2c[nH]c(=O)c3cc(-c4ccncc4)cn23)c1 [Example 7, 3-{[1-oxo-7-(pyridin-4-yl)-1,2-dihydropyrrolo[1,2-a]pyrazin-4-yl]methyl}benzoic acid]
< 0.01 µM | CS(=O)(=O)NCc1ccc(Cc2c[nH]c(=O)c3cc(-c4c[nH]c5ncccc45)cn23)cc1 [Example 31, N-(4-{[1-oxo-7-(1H-pyrrolo[2,3-b]pyridin-3-yl)-1,2-dihydropyrrolo[1,2-a]pyrazin-4-yl]methyl}benzyl)methanesulfonamide]
< 0.01 µM | CS(=O)(=O)Nc1ccc(C(=O)c2c[nH]c(=O)c3cc(-c4c[nH]c5ncccc45)cn23)cc1 [Example 43, N-(4-{[1-oxo-7-(1H-pyrrolo[2,3-b]pyridin-3-yl)-1,2-dihydropyrrolo[1,2-a]pyrazin-4-yl]carbonyl}phenyl)methanesulfonamide]
< 0.01 µM | O=C(c1ccc([N+](=O)[O-])cc1)c1c[nH]c(=O)c2cc(-c3c[nH]c4ncccc34)cn12 [Example 15, 4-(4-nitrobenzoyl)-7-(1H-pyrrolo[2,3-b]pyridin-3-yl)pyrrolo[1,2-a]pyrazin-1(2H)-one]

Ki | Structure (SMILES)
> 0.1 µM | CCOC(=O)c1cccc(Cc2c[nH]c(=O)c3cc(-c4cccnc4)cn23)c1 [Example 8, ethyl 3-{[1-oxo-7-(pyridin-3-yl)-1,2-dihydropyrrolo[1,2-a]pyrazin-4-yl]methyl}benzoate]
< 0.01 µM | O=C(Nc1ccc(Cc2c[nH]c(=O)c3cc(-c4c[nH]c5ncccc45)cn23)cc1)c1cccnc1 [Example 28, N-(4-{[1-oxo-7-(1H-pyrrolo[2,3-b]pyridin-3-yl)-1,2-dihydropyrrolo[1,2-a]pyrazin-4-yl]methyl}phenyl)nicotinamide]
< 0.01 µM | NCc1ccc(Cc2c[nH]c(=O)c3cc(-c4c[nH]c5ncccc45)cn23)cc1 [Example 37, 4-[4-(aminomethyl)benzyl]-7-(1H-pyrrolo[2,3-b]pyridin-3-yl)pyrrolo[1,2-a]pyrazin-1(2H)-one]
< 0.01 µM | N#Cc1ccc(Cc2c[nH]c(=O)c3cc(-c4c[nH]c5ncccc45)cn23)cc1 [Example 16, 4-{[1-oxo-7-(1H-pyrrolo[2,3-b]pyridin-3-yl)-1,2-dihydropyrrolo[1,2-a]pyrazin-4-yl]methyl}benzonitrile]
< 0.01 µM | CC(Nc1ccc(Cc2c[nH]c(=O)c3cc(-c4c[nH]c5ncccc45)cn23)cc1)C1CC1 (stereo not shown) [Example 39, 4-{4-[(1-cyclopropylethyl)amino]benzyl}-7-(1H-pyrrolo[2,3-b]pyridin-3-yl)pyrrolo[1,2-a]pyrazin-1(2H)-one]
> 0.1 µM | CC(=O)NCc1ccc(Cc2c[nH]c(=O)c3cc(-c4c[nH]c5ncccc45)cn23)cc1 [Example 45, N-(4-{[1-oxo-7-(1H-pyrrolo[2,3-b]pyridin-3-yl)-1,2-dihydropyrrolo[1,2-a]pyrazin-4-yl]methyl}benzyl)acetamide]
< 0.01 µM | N#Cc1cc(Cc2c[nH]c(=O)c3cc(-c4c[nH]c5ncccc45)cn23)ccc1F [Example 2, 2-fluoro-5-{[1-oxo-7-(1H-pyrrolo[2,3-b]pyridin-3-yl)-1,2-dihydropyrrolo[1,2-a]pyrazin-4-yl]methyl}benzonitrile]
< 0.01 µM | O=C(Nc1ccc(Cc2c[nH]c(=O)c3cc(-c4c[nH]c5ncccc45)cn23)cc1)c1ccco1 [Example 26, N-(4-{[1-oxo-7-(1H-pyrrolo[2,3-b]pyridin-3-yl)-1,2-dihydropyrrolo[1,2-a]pyrazin-4-yl]methyl}phenyl)-2-furamide]
< 0.01 µM | O=c1[nH]cc(Cc2cccc([N+](=O)[O-])c2)n2cc(-c3c[nH]c4ncccc34)cc12 [Example 14, 4-(3-nitrobenzyl)-7-(1H-pyrrolo[2,3-b]pyridin-3-yl)pyrrolo[1,2-a]pyrazin-1(2H)-one]
< 0.01 µM | NC(=O)c1cccc(Cc2c[nH]c(=O)c3cc(-c4cn[nH]c4)cn23)c1 [Example 13, 3-{[1-oxo-7-(1H-pyrazol-4-yl)-1,2-dihydropyrrolo[1,2-a]pyrazin-4-yl]methyl}benzamide]
< 0.01 µM | O=c1[nH]cc(Cc2ccc(NCc3ccccn3)cc2)n2cc(-c3c[nH]c4ncccc34)cc12 [Example 24, 4-{4-[(pyridin-2-ylmethyl)amino]benzyl}-7-(1H-pyrrolo[2,3-b]pyridin-3-yl)pyrrolo[1,2-a]pyrazin-1(2H)-one]
0.01 to 0.1 µM | CCC(CC)Nc1ccc(Cc2c[nH]c(=O)c3cc(-c4c[nH]c5ncccc45)cn23)cc1 [Example 35, 4-[4-(pentan-3-ylamino)benzyl]-7-(1H-pyrrolo[2,3-b]pyridin-3-yl)pyrrolo[1,2-a]pyrazin-1(2H)-one]
< 0.01 µM | CN(C)CC(=O)NCc1ccc(Cc2c[nH]c(=O)c3cc(-c4c[nH]c5ncccc45)cn23)cc1 [Example 34, N^2,N^2-dimethyl-N-(4-{[1-oxo-7-(1H-pyrrolo[2,3-b]pyridin-3-yl)-1,2-dihydropyrrolo[1,2-a]pyrazin-4-yl]methyl}benzyl)glycinamide]
< 0.01 µM | O=c1[nH]cc(Cc2ccc(CNS(=O)(=O)C3CC3)cc2)n2cc(-c3c[nH]c4ncccc34)cc12 [Example 29, N-(4-{[1-oxo-7-(1H-pyrrolo[2,3-b]pyridin-3-yl)-1,2-dihydropyrrolo[1,2-a]pyrazin-4-yl]methyl}benzyl)cyclopropanesulfonamide]
< 0.01 µM | Nc1ccc(Cc2c[nH]c(=O)c3cc(-c4c[nH]c5ncccc45)cn23)cc1 [Example 23, 4-(4-aminobenzyl)-7-(1H-pyrrolo[2,3-b]pyridin-3-yl)pyrrolo[1,2-a]pyrazin-1(2H)-one]
